Laboratory results reported in patent publication US9693982B2, “Composition for amelioration of hypoalbuminemia” (OTSUKA PHARMACEUTICAL FACTORY, INC., priority 2010, dated 2017).

System: albumin mRNA
Test: Albumin mRNA expression of cultured human hepatocytes (Experiment 1, real time RT-PCR)
Assay type: cell-based
Conditions: for Expression level of albumin mRNA (mean ± SD): 24 hours after addition, ratio based on HPRT1 mRNA (regarded as 1), human hepatocytes Lot 100, triplicate; for Effect on albumin mRNA expression level (in words): human hepatocytes, 20 mM, 60 mM
Procedure: In this test, human primary cultured hepatocytes were cultured by each test solution to check a change of albumin mRNA expressional potency and a change of secretion level of albumin. The test was performed as follows.
Albumin mRNA and HPRT1 mRNA were measured. The nucleotide sequences of albumin and HPRT1 are registered in the GenBank as follows and each nucleotide sequence follows the sequence registered.
Note that, HPRT1, which is a house keeping gene serving as a control, was measured in the same test. The sequences of primers and probes used in measurement of albumin are made public in Nishimura, M., Yoshitsugu, H., Yokoi, T., Tateno, C., Kataoka, M., Horie, T., Yoshizato, K. and Naito, S.: Evaluation of mRNA expression of human drug-metabolizing enzymes and transporters in chimeric mouse with humanized liver. Xenobiotica, 35: 877-890 (2005). Furthermore, the sequences of primers and probes used in measurement of HPRT1 are made public in Nishimura, M., Naito, S. and Yokoi, T.: Tissue-specific mRNA expression profiles of human nuclear receptor subfamilies. Drug Metab. Pharmacokinet., 19: 135-149 (2004).
Furthermore, mRNA was quantified by use of the primer pairs and probe represented by individual sequences (the position of initiation codon follows the each nucleotide sequence registered) shown in the following Table 1 and in accordance with RT-PCR (Real-time quantitative reverse transcription-polymerase reaction). Each of the primers and probe was prepared by an automatic DNA synthesizer.
As the test solution of the Livact composition, a Livact composition was dissolved such that the concentrations of Ile, Leu, and Val became 13.8 mM, 27.7 mM, and 18.5 mM, respectively after blending (60 mM as the concentration of the Livact composition test solution). Note that, in the dissolution procedure, a Livact composition was dissolved in Buffer A and then a medium was added in an amount 1/10 as low as that of Buffer A.
As an Ile, Leu or Val solution, Ile, Leu or Val was dissolved so as to have a concentration of 60 mM. Note that, in the dissolution procedure, Ile, Leu or Val was dissolved in Buffer A and then a medium was added in an amount 1/10 as low as that of Buffer A.
The Livact composition test solution prepared in Section (2-3) and Ile, Leu or Val solution prepared in Section (2-4) were diluted 3 fold with Buffer B to prepare a 20 mM solution.
According to a method of Nishimura et al. (Nishimura, M., Yoshitsugu, H., Naito, S. and Hiraoka, I.: Evaluation of gene induction of drug-metabolizing enzymes and transporters in primary culture of human hepatocytes using high-sensitivity real-time reverse transcription PCR. Yakugaku Zasshi, 122: 339-361 (2002)), 1×10^5 cells/400 μL was dispensed in each well of a 24 well plate and cultured in a CO2 incubator. After 3 hours, medium exchange was performed. Further after 21 hours (24 hours after inoculation), medium exchange was performed. Thereafter, the medium was exchanged every 24 hours. Note that, the amount of liquid medium to be exchanged was set at 400 μL/well. Furthermore, exchange to each test solution was performed at the after 48 hours at which medium exchange was performed.
After human hepatocytes (1×10^5 viable cells/0.4 mL/well) were inoculated, medium exchange was performed 3 hours and 24 hours after inoculation. Note that, the viability at the inoculating time was 90.4% (Lot 100). Then, 48 hours after inoculation, a test substance was added and 24 hours after addition of the test substance was initiated, Total RNA was extracted (using Rneasy Mini Kit). Quantification of mRNA of albumin and HPRT1 was performed by real time RT-PCR. Note that, HPRT1, which is a house keeping gene, was used as an internal standard.
After the medium was suctioned, Total RNA was extracted by use of QIA shredder and Rneasy Mini Kit. Now, a preparation method using the Kit will be described below. […]

| SMILES | Expression level of albumin mRNA (mean ± SD) (20 mM total test substance) | Expression level of albumin mRNA (mean ± SD) (60 mM total test substance) | Effect on albumin mRNA expression level (in words) |
| --- | --- | --- | --- |
| CC[C@H](C)[C@H](N)C(=O)O [Ile, Isoleucine] | 174 ± 33 | 222 ± 27 | increases in an additive manner |
| CC(C)C[C@H](N)C(=O)O [Leu, Leucine] | 215 ± 63 | 255 ± 53 | increases in an additive manner |
| CC(C)[C@H](N)C(=O)O [Val, Valine, reference compound] | 127 ± 17 | 118 ± 10 |  |
